In ChEMBL document CHEMBL3046499, “Synthesis of 2,2-diphenylpropionate derivatives and their effects on larval growth of the silkworm” (2000):
The source made the active and inactive calls. No cut-off for these calls is given here.

Experiments:
Bombyx mori [1] = assay: Insecticidal activity against fourth-instar larval stage of Bombyx mori Shunrei x Shongetsu assessed as fourth-instar larval duration time at 100 ppm administered through artificial diet (reference value: 5.1 +/- 0.2 days); type: functional
Bombyx mori [2] = assay: Insecticidal activity against fourth-instar larval stage of Bombyx mori Shunrei x Shongetsu assessed as fourth-instar larval duration time at 30 ppm administered through artificial diet (reference value: 5.1 +/- 0.2 days); type: functional
Bombyx mori [3] = assay: Insecticidal activity against fourth-instar larval stage of Bombyx mori Shunrei x Shongetsu assessed as delay in increase of hemolymph 20-hydroxyecdysone level at 50 ppm administered through artificial diet measured for 5 days post third ecdysis by ELISA relative to acetone-treated control; type: functional, organism-based

SMILES	Time (Bombyx mori [1])	Time (Bombyx mori [2])	Activity (Bombyx mori [3])
CCN1CCN(CCCCCOC(=O)C(C)(c2ccccc2)c2ccccc2)CC1	5.8 days	5.1 days	–
CCN(CC)CCCOC(=O)C(C)(c1ccccc1)c1ccccc1	5.2 days	5.1 days	–
CN1CCN(CCCOC(=O)C(C)(c2ccccc2)c2ccccc2)CC1	7.5 days	6.9 days	–
CCN1CCN(CCOC(=O)C(C)(c2ccccc2)c2ccccc2)CC1	6.2 days	5.1 days	–
CN(CCCOC(=O)C(C)(c1ccccc1)c1ccccc1)C1CCCCC1	5.6 days	5 days	–
CN1[C@@H]2CC[C@H]1CC(OC(=O)[C@H](CO)c1ccccc1)C2 (stereo partly drawn) [ENDO-ATROPINE]	6.3 days	5.2 days	–
CCN1CCN(CCCCCCOC(=O)C(C)(c2ccccc2)c2ccccc2)CC1	4.5 days	4.7 days	–
CN1C2CCC1CC(OC(=O)C(C)(c1ccccc1)c1ccccc1)C2 (stereo unspecified)	–	6.1 days	–
CC(C(=O)OCCCN1CCCCC1)(c1ccccc1)c1ccccc1	7.4 days	5.1 days	–
CCN1CCN(CCCOC(=O)C(C)(c2ccccc2)c2ccccc2)CC1	7.2 days	6.5 days	Active
CCN1CCN(CCCCOC(=O)C(C)(c2ccccc2)c2ccccc2)CC1	6.1 days	5.6 days	–
CC(C(=O)OCCCN1CCOCC1)(c1ccccc1)c1ccccc1	6.1 days	5 days	–
CC(C(=O)OCCCN1CCCC1)(c1ccccc1)c1ccccc1	6 days	5.2 days	–
